Assays:
Assay type in all cases: cell-based
[1] = Cell cytotoxicity 50 assay (CC50), HEK cells; conditions: human
Description: (§1) Cell Cytotoxicity 50 Assay Protocol (CC50) Into a deep well block (DWB), the media for the appropriate cell line (450 μL/well) was added into wells 1-10. Into DWB well 2, 10 mM of drug solution (13.5 μL) was added, followed by an additional volume of the medium (225 μL). The well was pipetted up/down four times. A portion (225 μL) was transferred to well 3, and this process was repeated up to well 10. Using a multichannel pipet, a smaller portion (50 μL/well) was removed from all wells in the DWB and then dispensed on top of the cells in each corresponding row. After adding the drug, the plate was incubated at 37° C. for 72 h. Using a multi-channel pipet, pre-warmed cell titer glo reagent (Promega) (100 μL) was added into every well. After 5 minutes, the total luminescence was measured with a luminometer. CC50 was determined with GraphPad prism template.

MBD3L2 RNA = assay: RNA isolation and qPCR to determine MBD3L2 RNA levels in FSHD cells; conditions: 48 hrs
Description: Protocol for RNA Isolation and qPCR to Determine MBD3L2 RNA Levels The protocol describes the process of isolating RNA from cultured cells, converting the RNA to complementary DNA (cDNA), and measuring target gene expression using a quantitative polymerase chain reaction (qPCR). The seed FSHD cells were dispensed into a six-well dish. One day after seeding, the DUX4 inhibitor (11 μM or 3.6 μM/well) was added to the cells. After another 48 hrs, the old media was removed from the cells. The cells were washed with 2 mL of warm phosphate buffered saline (PBS). The PBS was aspirated, and the cells were lysed in each well with 350 μL of RLT buffer+3.5 μL of beta-mercaptoethanol (BME). The lysates were added to fresh, RNAse-free, labeled Eppendorf tubes. The cells were then physically disrupted for […] at level 4 of the bead disrupter to ensure the release of the RNA. The RNA was collected according to standard procedures (i.e., Qiagen kit instructions) as discussed below. The RNA concentrations were standardized to […]. In a PCR tube, RNA (2 μg) in a new Eppendorf tube was diluted with RNase-free water to a 9.5 μL final volume of […] RNA. DNase was used to remove any DNA contamination. A DNase Master Mix was prepared from 1.5 μL/reaction DNase solution (1 unit/μL, Promega), 3 μL/reaction 5× RT buffer (i.e., 250 mM Tris-HCl (pH 8.3), 375 mM KCl, 15 mM MgCl2, and 500 μl 0.1 M DTT; Promega MMLV), and 1 μL/reaction RNase inhibitor solution (RNasin, 40 units/μL, Promega). The DNase Master Mix was added to the standardized RNA samples (5.5 μL/sample). The samples were mixed by agitation and briefly spun down by centrifuge. The samples were heated to 37° C. for 60 min, 80° C. for 5 min, and then cooled to 4° C. The samples were stored on ice until the addition of the next reagents. An RT Reaction Master Mix was prepared from 5 μL/reaction 5× RT buffer, 2 μL/reaction dNTP solution (2.5 mM in each nucleotide), 1 μL/reaction RNase inhibitor solution (RNasin, 40 units/μL, Promega), 1.6 μL/reaction M-MLV reverse transcriptase (200 units/μL, Promega), and 13.4 μL/reaction deionized, RNase-free water. The RT Reaction Master Mix was cooled on ice until use. A 50 μM solution of Random Primer 6 random hexanucleotides (2 μL) was added to each sample. The samples were mixed by agitation and briefly spun down by centrifuge. The samples were heated to 70° C. for 5 min and then cooled to 4° C. The RT Reaction Master Mix (23 μL) was added to each sample. The samples were mixed by agitation and briefly spun down by centrifuge. To convert the RNA to cDNA, the samples were heated to 42° C. for 60 min, 95° C. for 5 min, and then cooled to 4° C. The cDNA product mixture was diluted 5:1 with deionized water (40 μL+160 μL). The samples were run in triplicate, with a methyl-CpG-binding protein 3-like 2 (MBD3L2) target primer and a eukaryotic translation elongation factor 1-alpha (EEF1A) control primer. An qPCR Master Mix was prepared for each primer and stored on ice (4° C.) until use. The qPCR Master Mix included 10 μL/reaction SYBR Green Mix (2×) (ThermoFisher), 1 μL/reaction of the primer mix (i.e., the MBD3L2 PCR Primer mix or the EEF1A Primer mix), and 4 μL/reaction deionized, RNase-free water. To set up the qPCR plate, 15 μL of the appropriate qPCR Master Mix was added to the appropriate wells for each target/primer. After all the targets/primers have been added to the wells, 5 μL of the sample was added to the corresponding wells so that each well is 20 μL total. The plate was covered with a clear sheet. An qPCR run was set up (QuantStudio 5) with the following cycle: […]

[2] = Cell cytotoxicity 50 assay (CC50), MB200 cells, cell titer glo; conditions: human
Description: as §1, with “(CC50) MB200 cells were grown until 80% confluent in F10 media supplemented with rhFGF basic (10 ng/ml), 15% fetal bovine serum, 1% penicillin streptomycin, 1% amphotericin B, and 1 μM dexamethasone. Adherent MB200 cells growing on 10 cm plate were then trypsinized with 1 ml of trypsin. Once the cells detached from the plate, F10 media (10 mL) was added, and the cells were strained through a 70 μm cell strainer. The cells were counted using a mixture of 10 μL cell suspension with 10 μL of trypan blue. Once the total number of cells were counted, a dilution of 200 k/mL was prepared, and the cells were seeded with 10 k cells/well in a 96-well plate in triplicate, making sure to avoid seeding cells in the edges of the plate to avoid edge effects. Using a multichannel pipet, the 200 k/mL cell dilution (50 μL/well) was added into wells B2-B11, C2-C11, and D2-D11 in triplicate.” for “(CC50)”

| SMILES | CC50 at 72 h [1] [µM] | qPCR MBD3L2 Inhib at 11 µM (MBD3L2 RNA) | CC50 at 72 h [2] [µM] |
| --- | --- | --- | --- |
| O=C(CCN1C(=O)CCC1=O)Nc1ccc(-c2nc3ccccc3s2)cc1 [Compound 1] | > 10 | YES | 1 to 10 |
| Cc1ccc2nc(-c3ccc(NC(=O)CCN4C(=O)CCC4=O)cc3)sc2c1 [Compound 2] | > 10 | – | 1 to 10 |
| CCOCCCC(=O)Nc1ccc(-c2nc3ccccc3s2)cc1 [Compound 3] | 1 to 10 | – | 1 to 10 |
| CC(=O)CCCC(=O)Nc1ccc(-c2nc3ccc(C)cc3s2)cc1 [Compound 4] | > 10 | – | > 10 |
| CC(=O)NCCCC(=O)Nc1ccc(-c2nc3ccccc3s2)cc1 [Compound 5] | > 10 | YES | > 10 |
| O=C(CCN1C(=O)CCC1=O)Nc1ccc(-c2nc3ccccc3s2)cn1 [Compound 6] | > 10 | – | > 10 |
| CC(=O)NCC(C)CC(=O)Nc1ccc(-c2nc3ccccc3s2)cc1 (stereo not drawn) [Compound 9] | > 10 | YES | > 10 |
| CCC(=O)NCCCC(=O)Nc1ccc(-c2nc3ccccc3s2)cc1 [Compound 10] | > 10 | YES | > 10 |
| O=C(CCc1ccncc1)Nc1ccc(-c2nc3ccccc3s2)cc1 [Compound 12] | > 10 | – | > 10 |
| O=C(CCc1cccnc1)Nc1ccc(-c2nc3ccccc3s2)cc1 [Compound 13] | > 10 | YES | > 10 |
| O=C(CCc1cnc[nH]1)Nc1ccc(-c2nc3ccccc3s2)cc1 [Compound 14] | > 10 | YES | > 10 |
| CC(=O)NCCCC(=O)Nc1ccc(-c2nc3ccc(C)cc3s2)cc1 [Compound 15] | > 10 | YES | > 10 |
| Cc1ccc2nc(-c3ccc(NC(=O)CC4CCCC4)cc3)sc2c1 [Compound 16] | > 10 | YES | > 10 |
| CCOCCCC(=O)Nc1ccc(-c2nc3ccc(C)cc3s2)cc1 [Compound 17] | 1 to 10 | – | 1 to 10 |
| O=C(CCN1CCCC1=O)Nc1ccc(-c2nc3ccccc3s2)cc1 [Compound 18] | > 10 | YES | > 10 |
| CC(=O)OCCCC(=O)Nc1ccc(-c2nc3ccccc3s2)cc1 [Compound 19] | > 10 | – | > 10 |
| CC(=O)CCCC(=O)Nc1ccc(-c2nc3ccccc3s2)cc1 [Compound 20] | > 10 | – | > 10 |
| O=C(CCN1C(=O)CCC1=O)Nc1ccc(-c2nc3ccccc3s2)o1 [Compound 24] | > 10 | – | > 10 |
| CC(=O)NCCC(=O)Nc1ccc(-c2nc3ccc(C)cc3s2)cc1 [Compound 35] | > 10 | – | > 10 |
| CC(=O)NCCC(=O)Nc1coc(-c2nc3ccccc3s2)c1 [Compound 42] | > 10 | – | > 10 |

| SMILES | CC50 at 72 h [1] [µM] | qPCR MBD3L2 Inhib at 11 µM (MBD3L2 RNA) | CC50 at 72 h [2] [µM] |
| --- | --- | --- | --- |
| CC(=O)NCCC(=O)Nc1ccc(-c2nc3ccc(F)cc3s2)cc1 [Compound 45] | > 10 | – | > 10 |
| CC(=O)NCCC(=O)Nc1ccc(-c2nc3cc(Cl)ccc3s2)cc1 [Compound 47] | > 10 | – | > 10 |
| O=C(CCn1ccnn1)Nc1ccc(-c2nc3ccccc3s2)cc1 [Compound 48] | > 10 | – | > 10 |
| O=C(CCN1CCCC1=O)Nc1ccc(C(=O)c2nc3ccccc3s2)cc1 [Compound 50] | > 10 | – | > 10 |
| O=C(CCc1ncccn1)Nc1ccc(-c2nc3ccccc3s2)cc1 [Compound 51] | > 10 | – | > 10 |
| O=C(CCc1cocn1)Nc1ccc(-c2nc3ccccc3s2)cc1 [Compound 57] | > 10 | – | > 10 |
| CC(=O)NCCC(=O)Nc1ccc(-c2nc3cnccc3s2)cc1 [Compound 58] | > 10 | – | > 10 |
| O=C(CCCc1cnco1)Nc1ccc(-c2nc3ccccc3s2)cc1 [Compound 63] | 1 to 10 | – | > 10 |
| O=C(CCCc1cnco1)Nc1coc(-c2nc3ccccc3s2)c1 [Compound 68] | > 10 | – | > 10 |
| CC(=O)NCCCC(=O)Nc1ccc(-c2ncc(Cl)s2)cc1 [Compound 78] | > 10 | – | > 10 |
| O=C(CCCN1C(=O)CCC1=O)Nc1nc2ccccc2s1 [Compound 82] | > 10 | – | > 10 |
| O=C1CCC(=O)N1[C@H]1C[C@H](C(=O)Nc2ccc(-c3nc4ccccc4s3)cc2)C1 [Compound 96] | > 10 | – | > 10 |
| O=C(CCCc1cocn1)Nc1ccc(-c2nc3cc(F)ccc3s2)cc1 [Compound 99] | > 10 | – | > 10 |
| CC(=O)NC1CC1C(=O)Nc1ccc(-c2nc3ccccc3s2)cc1 (stereo not drawn) [Compound 100] | > 10 | – | > 10 |
| N#CCCCC(=O)Nc1ccc(-c2nc3ccccc3s2)cc1 [Compound 124] | > 10 | – | > 10 |
| CC(=O)NCCCC(=O)Nc1ccc(-c2nc3ccccc3s2)cc1C [Compound 125] | > 10 | – | > 10 |
| CC(=O)NCCCC(=O)Nc1ccc(-c2ncc(-c3ccccc3)s2)cc1 [Compound 132] | > 10 | – | > 10 |
| O=C(CCCN1C(=O)CCC1=O)Nc1ccc(-c2nc3ccccc3s2)o1 [Compound 168] | > 10 | – | > 10 |
| O=C(CCC1CCC(=O)N1)Nc1ccc(-c2nc3ccccc3s2)cc1 (stereo not drawn) [Compound 176] | > 10 | – | 1 to 10 |

— patent publication US20250313555A1, “2-SUBSTITUTED THIAZOLE AND BENZOTHIAZOLE COMPOSITIONS AND METHODS AS DUX4 INHIBITORS” (ALTAY THERAPEUTICS, INC., priority 2022, published 2025)
